Read-outs that look alike come from different tables or passages of the source.
How the values were obtained:
[1] = test system: HCV genotype 1a (H77 strain) replicon in HUH-7 cells; test: HCV replicon luciferase reporter assay, genotype 1a; type: cell-based; settings: Hepatitis C virus, 72 h, genotype 1a replicon, 3 days incubation, read-out: LE_1a (EC50, range)
Source text: (§1) An HCV replicon whole cell system was established as described by Lohmann V, Korner F, Koch J, Herian U, Theilmann L, Bartenschlager R., Science 285(5424):110-3 (1999) and modified to introduce a luciferase reporter, as first described by Krieger et al (Krieger N, Lohmann V, and Bartenschlager R, J. Virol. 75(10):4614-4624 (2001)). CDNA encoding a humanized form of the Renilla luciferase gene and a linker sequence fused directly to the 3′-end of the luciferase gene were introduced into the replicon construct using an Asc1 restriction site located in core, directly upstream of the neomycin marker gene. The adaptive mutation at position 1179 (serine to isoleucine) was also introduced (Blight K J, Kolykhalov, A A, Rice, C M, Science 290(5498):1972-1974). A stable cell line constitutively expressing this HCV replicon construct was generated by first linearizing plasmid DNAs with ScaI. RNA transcripts were synthesized in vitro using the T7 MegaScript transcription kit (Ambion, Austin, Tex.) according to manufacturer's directions. In vitro transcripts of the cDNA were transfected into the human hepatoma cell line, HUH-7. […] Resulting cell lines were characterized for positive and negative strand RNA production and protein production over time.
A stable HCV replicon luciferase reporter cell line representing the genotype 1a H77 strain (Yanagi M, Purcell R H, Emerson S U, et al. Transcripts from a single full-length cDNA clone of hepatitis C virus are infectious when directly transfected into the liver of a chimpanzee. Proc Natl Acad Sci USA 1997; 94(16):8738-8743) was generated as described previously for the genotype 1b (Con1) replicon luciferase cell line. The replicon construct was modified by introducing mutations were introduced into the genes encoding the NS3 helicase domain (proline replaced by leucine at position 1496) and NS5A (serine to isoleucine at position 2204) to improve replication in cell culture.
(§2) HCV replicon luciferase assays were developed to monitor the inhibitory effects of compounds described in the disclosure on HCV genotypes 1a and 1b viral replication. HUH-7 cells, constitutively expressing the HCV replicon, were grown in Dulbecco's Modified Eagle Media (DMEM) (Gibco-BRL) containing 10% Fetal calf serum (FCS) (Sigma) and 1 mg/mL G418 (Gibco-BRL). Compounds were serially diluted 3 folds in DMSO for a twenty-point titration and subsequently transferred to sterile 384-well tissue-culture treated plates (Corning cat #3571). The plates were then seeded with 50 μL of cells at a density of 3.0×10^3 cells/well in DMEM containing 4% FCS (final DMSO concentration at 0.5%). After 3 days incubation at 37° C., cells were analyzed for Renilla Luciferase activity using the EnduRen as substrate (Promega cat #E6485). The EnduRen substrate was diluted in DMEM and then added to the plates to a final concentration of 7.5 μM. The plates were incubated for 2 hrs at 37° C. and then read immediately for 30 seconds with Viewlux Imager (PerkinElmer) using a luminescence program. To assess cytotoxicity of compounds, CC50 values were generated by multiplexing the EnduRen-containing plates with Cell Titer-Blue (Promega, cat # G8082). Cell-Titer Blue (3 μL) was added to each well and incubated for 8 hrs at 37° C. The fluorescence signal from each well was read, with an excitation wavelength at 525/10 nm and an emission wavelength of 598/10 nm, using the Viewlux Imager.
(§3) The EC50 values for compounds were calculated by using a four-parameter logistic equation: y=A+((B−A)/(1+((C/x)^D))), where A and B denotes minimal and maximal % inhibition, respectively, C is the EC50, D is the hill slope and x represents compound concentration.

[2] = test system: HCV genotype 1b (Con1) replicon in HUH-7 cells; test: HCV replicon luciferase reporter assay, genotype 1b; type: cell-based; settings: Hepatitis C virus, 72 h, genotype 1b replicon, 3 days incubation
Source text: as §1, with “time. […]” for “time.”
as §2, §3

Row | Compound | EC50 [1] [nM] | EC50 ([2]; read-out: LE_1b (EC50, range)) [nM] | EC50 ([2]; read-out: LE_1b (EC50)) [nM]
1 | COC[C@@H]1CCCC/C=C\[C@@H]2C[C@@]2(C(=O)NS(=O)(=O)C2(C)CC2)NC(=O)[C@@H]2C[C@@H](Oc3nccc4cc(OC)ccc34)CN2C(=O)[C@H]1NC(=O)OC(C)(C)C(F)(F)F [Compound 1001, 1,1,1-trifluoro-2-methylpropan-2-yl ((2R,6S,7R,13aS,14aR,16aS,Z)-2-((6-methoxyisoquinolin-1-yl)oxy)-7-(methoxymethyl)-14a-(((1-methylcyclopropyl)sulfonyl)carbamoyl)-5,16-dioxo-1,2,3,5,6,7,8,9,10,11,13a,14,14a,15,16,16a-hexadecahydrocyclopropa[e]pyrrolo[1,2-a][1,4]diazacyclopentadecin-6-yl)carbamate] | 1.01 to 5 | 0.51 to 1 | 
2 | COC[C@@H]1CCCC/C=C\[C@@H]2C[C@@]2(C(=O)NS(=O)(=O)C2(C)CC2)NC(=O)[C@@H]2C[C@@H](Oc3ncc(OC)c4ccccc34)CN2C(=O)[C@H]1NC(=O)OC(C)(C)C(F)(F)F [Compound 1002, 1,1,1-trifluoro-2-methylpropan-2-yl ((2R,6S,7R,13aS,14aR,16aS,Z)-2-((4-methoxyisoquinolin-1-yl)oxy)-7-(methoxymethyl)-14a-(((1-methylcyclopropyl)sulfonyl)carbamoyl)-5,16-dioxo-1,2,3,5,6,7,8,9,10,11,13a,14,14a,15,16,16a-hexadecahydrocyclopropa[e]pyrrolo[1,2-a][1,4]diazacyclopentadecin-6-yl)carbamate] | 0.51 to 1 | 0.1 to 0.5 | 
3 | COC[C@@H]1C[C@H](C)CC/C=C\[C@@H]2C[C@@]2(C(=O)NS(=O)(=O)C2CC2)NC(=O)[C@@H]2C[C@@H](Oc3ncc(OC)c4ccccc34)CN2C(=O)[C@H]1NC(=O)OC(C)(C)C [Compound 1003, tert-butyl ((2R,6S,7R,9R,13aS,14aR,16aS,Z)-14a-((cyclopropylsulfonyl)carbamoyl)-2-((4-methoxyisoquinolin-1-yl)oxy)-7-(methoxymethyl)-9-methyl-5,16-dioxo-1,2,3,5,6,7,8,9,10,11,13a,14,14a,15,16,16a-hexadecahydrocyclopropa[e]pyrrolo[1,2-a][1,4]diazacyclopentadecin-6-yl)carbamate] | 0.51 to 1 | 0.1 to 0.5 | 
4 | COC[C@@H]1C[C@@H](C)CC/C=C\[C@@H]2C[C@@]2(C(=O)NS(=O)(=O)C2CC2)NC(=O)[C@@H]2C[C@@H](Oc3ncc(OC)c4ccccc34)CN2C(=O)[C@H]1NC(=O)OC(C)(C)C [Compound 1004, tert-butyl ((2R,6S,7R,9S,13aS,14aR,16aS,Z)-14a-((cyclopropylsulfonyl)carbamoyl)-2-((4-methoxyisoquinolin-1-yl)oxy)-7-(methoxymethyl)-9-methyl-5,16-dioxo-1,2,3,5,6,7,8,9,10,11,13a,14,14a,15,16,16a-hexadecahydrocyclopropa[e]pyrrolo[1,2-a][1,4]diazacyclopentadecin-6-yl)carbamate] | 1.01 to 5 | 1.01 to 5 | 
5 | COC[C@@H]1C[C@H](C)CC/C=C\[C@@H]2C[C@@]2(C(=O)NS(=O)(=O)C2(C)CC2)NC(=O)[C@@H]2C[C@@H](Oc3nccc4cc(OC)ccc34)CN2C(=O)[C@H]1NC(=O)OC(C)(C)C [Compound 1005, tert-butyl ((2R,6S,7R,9R,13aS,14aR,16aS,Z)-2-((6-methoxyisoquinolin-1-yl)oxy)-7-(methoxymethyl)-9-methyl-14a-(((1-methylcyclopropyl)sulfonyl)carbamoyl)-5,16-dioxo-1,2,3,5,6,7,8,9,10,11,13a,14,14a,15,16,16a-hexadecahydrocyclopropa[e]pyrrolo[1,2-a][1,4]diazacyclopentadecin-6-yl)carbamate] | 1.01 to 5 | 0.1 to 0.5 | 
6 | COC[C@@H]1C[C@@H](C)CC/C=C\[C@@H]2C[C@@]2(C(=O)NS(=O)(=O)C2(C)CC2)NC(=O)[C@@H]2C[C@@H](Oc3nccc4cc(OC)ccc34)CN2C(=O)[C@H]1NC(=O)OC(C)(C)C [Compound 1006, tert-butyl ((2R,6S,7R,9S,13aS,14aR,16aS,Z)-2-((6-methoxyisoquinolin-1-yl)oxy)-7-(methoxymethyl)-9-methyl-14a-(((1-methylcyclopropyl)sulfonyl)carbamoyl)-5,16-dioxo-1,2,3,5,6,7,8,9,10,11,13a,14,14a,15,16,16a-hexadecahydrocyclopropa[e]pyrrolo[1,2-a][1,4]diazacyclopentadecin-6-yl)carbamate] | 5.01 to 35 | 1.01 to 5 | 
7 | CCOc1cnc(O[C@@H]2C[C@H]3C(=O)N[C@]4(C(=O)NS(=O)(=O)C5(C)CC5)C[C@H]4/C=C\CC[C@@H](C)C[C@@H](COC)[C@H](NC(=O)OC(C)(C)C(F)(F)F)C(=O)N3C2)c2ccc(OC)cc12 [Compound 1066, 1,1,1-trifluoro-2-methylpropan-2-yl ((2R,6S,7R,9R,13aS,14aR,16aS,Z)-2-((4-ethoxy-6-methoxyisoquinolin-1-yl)oxy)-7-(methoxymethyl)-9-methyl-14a-(((1-methylcyclopropyl)sulfonyl)carbamoyl)-5,16-dioxo-1,2,3,5,6,7,8,9,10,11,13a,14,14a,15,16,16a-hexadecahydrocyclopropa[e]pyrrolo[1,2-a][1,4]diazacyclopentadecin-6-yl)carbamate] |  | 0.1 to 0.5 | 
8 | CCOc1cnc(O[C@@H]2C[C@H]3C(=O)N[C@]4(C(=O)NS(=O)(=O)C5(C)CC5)C[C@H]4/C=C\CC[C@H](C)C[C@@H](COC)[C@H](NC(=O)OC(C)(C)C(C)(F)F)C(=O)N3C2)c2ccc(OC)cc12 [Compound 1067, 3,3-difluoro-2-methylbutan-2-yl ((2R,6S,7R,9S,13aS,14aR,16aS,Z)-2-((4-ethoxy-6-methoxyisoquinolin-1-yl)oxy)-7-(methoxymethyl)-9-methyl-14a-(((1-methylcyclopropyl)sulfonyl)carbamoyl)-5,16-dioxo-1,2,3,5,6,7,8,9,10,11,13a,14,14a,15,16,16a-hexadecahydrocyclopropa[e]pyrrolo[1,2-a][1,4]diazacyclopentadecin-6-yl)carbamate] |  |  | 0.5
9 | CCOc1cnc(O[C@@H]2C[C@H]3C(=O)N[C@]4(C(=O)NS(=O)(=O)C5(C)CC5)C[C@H]4/C=C\CC[C@@H](C)C[C@@H](COC)[C@H](NC(=O)OC(C)(C)C(C)(F)F)C(=O)N3C2)c2ccc(OC)cc12 [Compound 1068, 3,3-difluoro-2-methylbutan-2-yl ((2R,6S,7R,9R,13aS,14aR,16aS,Z)-2-((4-ethoxy-6-methoxyisoquinolin-1-yl)oxy)-7-(methoxymethyl)-9-methyl-14a-(((1-methylcyclopropyl)sulfonyl)carbamoyl)-5,16-dioxo-1,2,3,5,6,7,8,9,10,11,13a,14,14a,15,16,16a-hexadecahydrocyclopropa[e]pyrrolo[1,2-a][1,4]diazacyclopentadecin-6-yl)carbamate] |  | 0.1 to 0.5 | 
